In patent publication US20070130640A1, “Methods of modulating auxin production in plants” (priority 2005, published 2007):
Where two headings read alike, the source gives them in different places.

How the values were obtained:
[1] = molecular target: T1, CYP83B1 (Arabidopsis thaliana, UniProt O65782); assay: CYP83B1 catalysis of [5-3H]indole-3-acetaldoxime metabolism (Km, Vmax, inhibition; TLC / scintillation counting)
T1 sequence (O65782 1-499): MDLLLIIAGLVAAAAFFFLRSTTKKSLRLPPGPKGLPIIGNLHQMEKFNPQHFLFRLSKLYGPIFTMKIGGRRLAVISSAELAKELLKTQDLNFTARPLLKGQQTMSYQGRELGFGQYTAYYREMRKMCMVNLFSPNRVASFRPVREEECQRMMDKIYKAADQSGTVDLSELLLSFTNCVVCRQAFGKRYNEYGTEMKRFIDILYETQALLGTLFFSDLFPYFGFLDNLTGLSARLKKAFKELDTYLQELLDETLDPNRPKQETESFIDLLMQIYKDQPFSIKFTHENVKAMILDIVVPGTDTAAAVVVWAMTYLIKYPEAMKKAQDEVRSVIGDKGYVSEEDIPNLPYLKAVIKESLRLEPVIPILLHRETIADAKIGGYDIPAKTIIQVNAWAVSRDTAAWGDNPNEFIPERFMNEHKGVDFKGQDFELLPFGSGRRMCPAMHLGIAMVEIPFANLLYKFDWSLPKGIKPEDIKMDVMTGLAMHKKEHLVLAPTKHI
Method: (§1) FIG. 3. (A) Analysis of CYP83B1 by optical difference spectroscopy. […] After incubation for 10 min at 28° C., reaction mixtures were extracted with ethylacetate and analyzed by TLC. (s) substrate, (p) product.
After incubation, reaction mixtures were stopped by adding SDS to 0.4% and were analyzed by thin layer chromatography (TLC). TLC plates were developed in chloroform/methanol/water (85:14:1) and radioactive bands visualized by autoradiography.
Reactions were stopped and extracted with ethylacetate. Aliquots of the substrate-containing ethylacetate phase and product-containing water phase were subjected to liquid scintillation counting.

[2] = molecular target: T1, CYP83B1; assay: Spectral analysis (optical difference spectroscopy) of ligand binding to heterologously expressed CYP83B1 in yeast microsomes
Method: as §1

[3] = tested on: wild type seedlings; assay: Indole glucosinolate levels in seedlings grown on MS agar, quantified colorimetrically as SCN; format: in vivo, Arabidopsis; conditions: wild type seedlings germinated on MS media with 100 μM tryptamine; two week old; n=10
Method: FIG. 6. Indole glucosinolate levels are affected by CYP83B1 expression. Indole glucosinolates in individual two week old seedlings grown on MS agar were quantified calorimetrically as SCN. 1) Wild type, 2) rnt1-1, 3) molecularly complemented line 3.25.11, 4) overexpression line 1.4.7, and 5) wild type grown on 100 μM tryptamine. Data are represented as the mean ±S.E, (n=10 seedlings). Except for the molecularly complemented line 3.25.11, mean indole glucosinolate values all differ from wild type seedling values at a 1% confidence value (t-test).
Tryptophan-derived indole-3-acetaldoxime is also an intermediate in the biosynthesis of indole glucosinolates.

[4] = tested on: Arabidopsis seedlings; assay: Seedling growth on media supplemented with IAN (auxin phenotype); format: in vivo
Excerpt: Four nitrilases, differentially expressed during development and in response to environmental cues, catalyze hydrolysis of IAN to IAA in Arabidopsis (Bartel and Fink (1994) Proc. Natl. Acad. Sci. USA 91:6649-6653). The nitl mutant is insensitive to the auxin effects of exogenously applied IAN at the seedling stage (Normanly et al. (1997) Plant Cell 9:1781-1790). In accordance with the observed insensitivity of nit1 seedlings to IAN, NIT1 is most strongly expressed in the hypocotyl near the junction with the root in young seedlings as well as in the cotyledons. In contrast, NIT2 and NIT3 are expressed primarily in the cotyledons and NIT4 is expressed in the root tip (Bartel and Fink (1994) Proc. Natl. Acad. Sci. USA 91:6649-6653).

[5] = molecular target: T2, NIT1 (Arabidopsis thaliana, UniProt P32961); conditions: cited from earlier work
T2 sequence (P32961 1-346): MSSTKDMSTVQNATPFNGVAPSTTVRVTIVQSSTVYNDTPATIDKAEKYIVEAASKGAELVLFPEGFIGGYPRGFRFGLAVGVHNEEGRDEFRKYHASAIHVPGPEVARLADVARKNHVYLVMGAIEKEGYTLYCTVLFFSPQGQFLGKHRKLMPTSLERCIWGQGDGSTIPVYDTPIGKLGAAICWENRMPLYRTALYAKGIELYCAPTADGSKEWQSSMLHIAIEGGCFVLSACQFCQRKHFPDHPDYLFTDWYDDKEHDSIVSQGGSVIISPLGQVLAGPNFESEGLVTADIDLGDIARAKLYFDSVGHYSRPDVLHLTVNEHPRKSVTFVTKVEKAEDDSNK

[6] = molecular target: T3, NIT2 (Arabidopsis thaliana, UniProt P32962); conditions: cited from earlier work
T3 sequence (P32962 1-339): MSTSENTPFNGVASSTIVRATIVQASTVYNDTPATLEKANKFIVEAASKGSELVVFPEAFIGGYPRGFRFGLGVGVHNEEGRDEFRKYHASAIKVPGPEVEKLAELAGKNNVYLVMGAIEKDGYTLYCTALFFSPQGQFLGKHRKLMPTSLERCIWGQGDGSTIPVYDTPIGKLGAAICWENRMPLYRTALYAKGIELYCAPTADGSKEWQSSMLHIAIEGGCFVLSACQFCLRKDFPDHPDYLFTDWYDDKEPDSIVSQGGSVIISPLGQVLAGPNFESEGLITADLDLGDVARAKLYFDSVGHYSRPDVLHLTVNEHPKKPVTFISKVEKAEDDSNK

[7] = substrate: ON=CCc1c[nH]c2ccccc12; assay: purified protein, by the assay type; conditions: other: in the presence of cysteine, 2.2 nM CYP83B1, 1 min at 28 °C, estimated, pH 7.6

NCCc1c[nH]c2ccccc12 [tryptamine]
inhibition of CYP83B1 catalysis (indole-3-acetaldoxime oxidation) ([1]; 22 nM CYP83B1, 35 μM [5-3H]indole-3-acetaldoxime, 17.5 mM tryptamine, 10 min at 28 °C, TLC (FIG. 3B)): inhibitor | type of binding spectrum caused ([2]; yeast microsomes containing CYP83B1): typical type IIa binding spectrum | indole glucosinolate levels compared to wild type seedlings [3]: reduced levels

N#CCc1c[nH]c2ccccc12 [IAN, indole-3-acetonitrile]
effect on rnt1-1 seedlings (germination) ([4]; rnt1-1 seedlings grown on 50 μM IAN): almost completely inhibiting germination | phenotype of wild type seedlings ([4]; wild type Arabidopsis seedlings on media with 50 μM IAN): phenocopy rnt1-1 seedlings | Km for IAN hydrolysis [5]: in the mM range | Km for IAN hydrolysis [6]: in the mM range

ON=CCc1c[nH]c2ccccc12 [indole-3-acetaldoxime]
turnover (number) ([1]; in the presence of cysteine, 2.2 nM CYP83B1, 1 min at 28 °C): 53 min⁻¹ | type of binding spectrum caused [2]: weak reverse type I spectrum

B1: CYP83B1 (Arabidopsis thaliana) (protein)
chain: MDLLLIIAGLVAAAAFFFLRSTTKKSLRLPPGPKGLPIIGNLHQMEKFNPQHFLFRLSKLYGPIFTMKIGGRRLAVISSAELAKELLKTQDLNFTARPLLKGQQTMSYQGRELGFGQYTAYYREMRKMCMVNLFSPNRVASFRPVREEECQRMMDKIYKAADQSGTVDLSELLLSFTNCVVCRQAFGKRYNEYGTEMKRFIDILYETQALLGTLFFSDLFPYFGFLDNLTGLSARLKKAFKELDTYLQELLDETLDPNRPKQETESFIDLLMQIYKDQPFSIKFTHENVKAMILDIVVPGTDTAAAVVVWAMTYLIKYPEAMKKAQDEVRSVIGDKGYVSEEDIPNLPYLKAVIKESLRLEPVIPILLHRETIADAKIGGYDIPAKTIIQVNAWAVSRDTAAWGDNPNEFIPERFMNEHKGVDFKGQDFELLPFGSGRRMCPAMHLGIAMVEIPFANLLYKFDWSLPKGIKPEDIKMDVMTGLAMHKKEHLVLAPTKHI
Km [7]: 3 µM
